Measurements from patent US12098416B2, “Assessment of biological contamination and biological contamination treatment” (Halliburton Energy Services, Inc., priority 2019, dated 2024).

How the values were obtained:
[1] = tested on: SRB (sulfate reducing bacteria); test: Biocide efficacy study on low TDS (1%) fluid sample, Rapid SRB Detection Pouches (thin-film culture device); format: cell-based; details: for reduction in SRB count: 24-hour biocide contact
Procedure: In this example, an assessment of biological contamination was performed using culture devices including indicator reagents. More specifically, SRB enumeration in various water samples including SRB was performed using thin-film culture devices (“pouches”). Three milliliters of two samples, Sample A and Sample B, were introduced into separate Rapid SRB Detection Pouches (manufactured by 3M™). The pouches were sealed and incubated at 32° C. The pouches were incubated upright to allow the precipitate to settle toward the bottom of pouch. The SRB count of each sample was measured at multiple time intervals using a visual technique where the color of the samples was compared to reference colors as shown in FIGS. 2A and 2B. The degree of blackening of the sample at certain time points compared to the reference is indicative of SRB count.
A biocide efficacy study on a low TDS (1%) fluid sample using a thin-film culture device was evaluated and compared to the traditional bug-bottle approach. The low TDS fluid sample was inoculated with mature SRB. Seventy-two 3 mL doses of the fluid sample were then introduced into 72 Rapid SRB Detection Pouches. […] The dosages were based on the standard US Environmental Protection Agency (EPA) recommendations for each respective biocide:
(§1) The fluid samples were then incubated at a temperature of 32° C. After approximately 24 hours of inoculation, the SRB count was measured using the incubation and referencing procedure of Example 1. The bug bottle numbers were determined by counting the number of bottles in a serial dilution which had formed a visible black precipitate.

[2] = tested on: SRB (sulfate reducing bacteria); test: Biocide efficacy study on high TDS (10%) fluid sample, Rapid SRB Detection Pouches (thin-film culture device); format: cell-based; details: 4-hour biocide contact
Procedure: A biocide efficacy study on a high TDS (10%) fluid sample using a thin-film culture device was evaluated and compared to the traditional bug-bottle approach. The high TDS fluid sample was inoculated with mature SRB. Seventy-two 3 mL doses of the fluid sample were then introduced into 72 respective Rapid SRB Detection Pouches.
as §1

[3] = dose level not clearly singled out

| Compound | reduction in SRB count in comparison to the control ([1]; 4-hour biocide contact, low dose (THPS Low 25 ppm)) | reduction in SRB count ([1]; low dose (THPS Low 25 ppm)) | reduction in SRB count in comparison to the control ([2]; low dose (THPS Low 25 ppm)) | reduction in SRB count [1, 3] | reduction in SRB count in comparison to the control [2, 3] |
| --- | --- | --- | --- | --- | --- |
| tetrakis(hydroxymethyl)phosphonium sulfate [THPS] | all but the THPS Low biocide group demonstrated a reduction in SRB count | all but the didecyldimethyl ammonium chloride and THPS low dose biocide groups demonstrated a reduction in SRB count | all but the Quat and THPS low dose biocide groups demonstrated a reduction in SRB count | – | – |
| CCCCCCCCCC[N+](C)(C)CCCCCCCCCC.[Cl-] [Quat, didecyldimethyl ammonium chloride] | – | – | – | all but the didecyldimethyl ammonium chloride and THPS low dose biocide groups demonstrated a reduction in SRB count | all but the Quat and THPS low dose biocide groups demonstrated a reduction in SRB count |
